Measured values taken from patent US6740642B2, “Macrolides with antibacterial activity” (BAsilea Parmaceutica AG, priority 2000, dated 2004).
Converted amounts (≈) assume the structure as drawn.

Legend:
Assay in all cases: MIC, standard microdilution
S. aureus 1086 = assay type: cell-based, Staphylococcus aureus; conditions: for MIC: Staphylococcus aureus, read-out: minimum inhibitory concentration (MIC)
Text: (§1) The antibacterial activities of the compounds have been determined by standard microdilution technique (National Committee for Clinical Laboratory Standards. 1997. Methods for dilution antimicrobial susceptibility tests for bacteria that grow aerobically, 4th edition. Approved standard M7-A4. National Committee for Clinical Laboratory Standards, Wayne, Pa.).

S. aureus ATCC29213 = assay type: cell-based, Staphylococcus aureus; conditions: for MIC: Staphylococcus aureus, read-out: minimum inhibitory concentration (MIC)
Text: as §1

S. aureus 745 = assay type: cell-based, Staphylococcus aureus; conditions: for MIC: Staphylococcus aureus, read-out: minimum inhibitory concentration (MIC)
Text: as §1

St. pneumoniae 1/1 = assay type: cell-based, Streptococcus pneumoniae; conditions: for MIC: Streptococcus pneumoniae, read-out: minimum inhibitory concentration (MIC)
Text: as §1

St. pneumoniae SL199T = assay type: cell-based, Streptococcus pneumoniae; conditions: for MIC: Streptococcus pneumoniae, read-out: minimum inhibitory concentration (MIC)
Text: as §1

St. pneumoniae 12288 = assay type: cell-based, Streptococcus pneumoniae; conditions: for MIC: Streptococcus pneumoniae, read-out: minimum inhibitory concentration (MIC)
Text: as §1

St. pneumoniae 1/4 = assay type: cell-based, Streptococcus pneumoniae; conditions: for MIC: Streptococcus pneumoniae, read-out: minimum inhibitory concentration (MIC)
Text: as §1

[1] = tested on: P. aeruginosa ATCC27853 (+Ery. 32 μg/ml); assay type: cell-based
Text: as §1

E. coli ATCC25922 = assay type: cell-based; conditions: for MIC: Escherichia coli, read-out: minimum inhibitory concentration (MIC)
Text: as §1

## CC[C@H]1OC(=O)[C@H](C)C(=O)[C@H](C)[C@@H](O[C@@H]2O[C@H](C)C[C@H](N(C)C)[C@H]2O)[C@](C)(OC)C[C@@H](C)C(=O)[C@H](C)[C@H]2CC(=O)O[C@@]21C [Compound I-25, (3aR,4R,6R,8R,9R,10R,12R,15R,15aS)-15-Ethyloctahydro-8-methoxy-4,6,8,10,12,15a-hexamethyl-9-[[3,4,6-trideoxy-3-(dimethylamino)-β-D-xylo-hexopyranosyl]oxy]-2H-furo[2,3-c]oxacyclotetradecin-2,5,11,13 (3H,6H,12H)-tetrone]
S. aureus 1086
  MIC: 0.5 µg/mL (≈ 0.817 µM)
S. aureus ATCC29213
  MIC: 0.5 µg/mL (≈ 0.817 µM)
S. aureus 745
  MIC: > 16 µg/mL
St. pneumoniae 1/1
  MIC: ≤ 0.12 µg/mL
St. pneumoniae SL199T
  MIC: > 16 µg/mL
St. pneumoniae 12288
  MIC: > 16 µg/mL
St. pneumoniae 1/4
  MIC: 16 µg/mL (≈ 26.2 µM)
[1]
  minimum inhibitory concentration (MIC): >16 µg/mL
E. coli ATCC25922
  MIC: > 16 µg/mL

## CC[C@H]1OC(=O)[C@H](C)C(=O)[C@H](C)[C@@H](O[C@@H]2O[C@H](C)C[C@H](N(C)C)[C@H]2O)[C@](C)(OC)C[C@@H](C)C(=O)[C@H](C)[C@H]2[C@H](SCCCn3cnc4c(N)ncnc43)C(=O)O[C@@]21C [Compound I-26, (3S,3aR,4R,6R,8R,9R,10R,12R,15R,15aS)-3-[[3-[6-Amino-9H-purine-9-yl]propyl]thio]-15-ethyloctahydro-8-methoxy-4,6,8,10,12,15a-hexamethyl-9-[[3,4,6-trideoxy-3-(dimethylamino)-β-D-xylo-hexopyranosyl]oxy]-2H-furo[2,3-c]oxacyclotetradecin-2,5,11,13(3H,6H,12H)-tetrone]
S. aureus 1086
  MIC: ≤ 0.12 µg/mL
S. aureus ATCC29213
  MIC: ≤ 0.12 µg/mL
S. aureus 745
  MIC: > 16 µg/mL
St. pneumoniae 1/1
  MIC: ≤ 0.25 µg/mL
St. pneumoniae SL199T
  MIC: ≤ 0.25 µg/mL
St. pneumoniae 12288
  MIC: 0.25 µg/mL (≈ 0.305 µM)
St. pneumoniae 1/4
  MIC: ≤ 0.25 µg/mL
[1]
  minimum inhibitory concentration (MIC): >16 µg/mL
E. coli ATCC25922
  MIC: 16 µg/mL (≈ 19.5 µM)

## CC[C@H]1OC(=O)[C@H](C)C(=O)[C@H](C)[C@@H](O[C@@H]2O[C@H](C)C[C@H](N(C)C)[C@H]2O)[C@](C)(OC)C[C@@H](C)C(=O)[C@H](C)[C@H]2[C@H](SCCn3cnc4c(N(C)C)ncnc43)C(=O)O[C@@]21C [Compound I-27, (3S,3aR,4R,6R,8R,9R,10R,12R,15R,15aS)-3-[[2-[6-N,N-Dimethylamino-9H-purine-9-yl]ethyl]thio]-15-ethyloctahydro-8-methoxy-4,6,8,10,12,15a-hexamethyl-9-[[3,4,6-trideoxy-3-(dimethylamino)-β-D-xylo-hexopyranosyl]oxy]-2H-furo[2,3-c]oxacyclotetradecin-2,5,11,13(3H,6H,12H)-tetrone]
S. aureus 1086
  minimum inhibitory concentration (MIC): 1 µg/mL (≈ 1.2 µM)
S. aureus ATCC29213
  minimum inhibitory concentration (MIC): 0.25 µg/mL (≈ 0.3 µM)
S. aureus 745
  minimum inhibitory concentration (MIC): >16 µg/mL
St. pneumoniae 1/1
  minimum inhibitory concentration (MIC): <=0.25 μg/ml
St. pneumoniae SL199T
  minimum inhibitory concentration (MIC): 1 µg/mL (≈ 1.2 µM)
St. pneumoniae 12288
  minimum inhibitory concentration (MIC): 2 µg/mL (≈ 2.4 µM)
St. pneumoniae 1/4
  minimum inhibitory concentration (MIC): <=0.25 μg/ml
[1]
  minimum inhibitory concentration (MIC): >16 µg/mL
E. coli ATCC25922
  minimum inhibitory concentration (MIC): >16 µg/mL

## CO[C@@H]1[C@@H](O[C@@H]2O[C@H](C)[C@@H](O[C@H]3C[C@@](C)(O)[C@@H](OC(=O)CC(C)C)[C@H](C)O3)[C@H](N(C)C)[C@H]2O)[C@@H](CC=O)C[C@@H](C)[C@@H](O)/C=C/C=C/C[C@@H](C)OC(=O)C[C@H]1OC(C)=O [Josamycin, reference compound]
S. aureus 1086
  MIC: 2 µg/mL (≈ 2.42 µM)
S. aureus ATCC29213
  MIC: 2 µg/mL (≈ 2.42 µM)
S. aureus 745
  MIC: > 16 µg/mL
St. pneumoniae 1/1
  MIC: ≤ 0.12 µg/mL
St. pneumoniae SL199T
  MIC: > 16 µg/mL
St. pneumoniae 12288
  MIC: > 16 µg/mL
St. pneumoniae 1/4
  MIC: ≤ 4 µg/mL
[1]
  minimum inhibitory concentration (MIC): >16 µg/mL
E. coli ATCC25922
  MIC: > 16 µg/mL
